Reference: ChEMBL document CHEMBL1201862, “PubChem BioAssay data set” (2004)
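Cells were grown in 96-well plates and exposed to each compound for 48 hours at five concentrations; endpoints were interpolated linearly between bracketing concentrations, or set to the highest concentration if not reached. The concentration for 50% growth inhibition is given as GI50.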 Activity calls are given as the source filed them. Rule as the data show it: active = GI50 up to about 1.1 µM and inactive = higher.

Columns and labels:
Assay in all cases: growth of human tumour cells (NCI), 48 h
HCT-15 = test system: HCT-15
OVCAR-3 = test system: OVCAR-3
EKVX = test system: EKVX
SK-MEL-28 = test system: SK-MEL-28
ACHN = test system: ACHN
OVCAR-8 = test system: OVCAR-8
NCI-H460 = test system: NCI-H460
SK-MEL-2 = test system: SK-MEL-2
IGROV-1 = test system: IGROV-1
K562 = test system: K562
UACC-62 = test system: UACC-62
OVCAR-4 = test system: OVCAR-4
SK-MEL-5 = test system: SK-MEL-5
HOP-92 = test system: HOP-92
NCI-H23 = test system: NCI-H23
SNB-75 = test system: SNB-75
RPMI-8226 = test system: RPMI-8226
MCF7 = test system: MCF7
HOP-62 = test system: HOP-62
RXF 393 = test system: RXF 393
HL-60 = test system: HL-60
SN12C = test system: SN12C
NCI/ADR-RES = test system: NCI/ADR-RES
DU-145 = test system: DU-145
T47D = test system: T47D
A498 = test system: A498
HCC 2998 = test system: HCC 2998
Hs-578T = test system: Hs-578T
HCT-116 = test system: HCT-116
UACC-257 = test system: UACC-257
SR = test system: SR
COLO 205 = test system: COLO 205
U-251 = test system: U-251
OVCAR-5 = test system: OVCAR-5
MDA-MB-231 = test system: MDA-MB-231
Malme-3M = test system: Malme-3M
CCRF-CEM = test system: CCRF-CEM
SW-620 = test system: SW-620
HT-29 = test system: HT-29
LOX IMVI = test system: LOX IMVI
MOLT-4 = test system: MOLT-4
SF-268 = test system: SF-268
TK-10 = test system: TK-10
KM12 = test system: KM12
786-0 = test system: 786-0
PC-3 = test system: PC-3
M14 = test system: M14
SF-295 = test system: SF-295
A549 = test system: A549
MDA-MB-435 = test system: MDA-MB-435
NCI-H522 = test system: NCI-H522
SF-539 = test system: SF-539
CAKI-1 = test system: CAKI-1
SNB-19 = test system: SNB-19
MDA-N = test system: MDA-N
NCI-H226 = test system: NCI-H226
BT-549 = test system: BT-549
SK-OV-3 = test system: SK-OV-3
UO-31 = test system: UO-31

Which GI50 (HCT-15) does the source give for `O=C(CCCN1CCC2(CC1)/C(=N/C1CCCCC1)NC(=O)N2c1ccccc1)c1ccc(F)cc1` here?
The GI50 was 28.3 µM.

And the GI50 (OVCAR-3)?
Its GI50 is 11.6 µM (inactive).

And the GI50 (EKVX)?
Its GI50 is 29.8 µM (inactive).

And the GI50 (SK-MEL-28)?
Its GI50 is 18.6 µM (inactive).

What about the GI50 (ACHN) of the same compound?
Its GI50 is 31.7 µM (inactive).

What about the GI50 (OVCAR-8) of the same compound?
Its GI50 is 28.4 µM (inactive).

What about the GI50 (NCI-H460) of the same compound?
Its GI50 is 22.7 µM (inactive).

What about the GI50 (SK-MEL-2) of the same compound?
The GI50 was 17.7 µM (inactive).

And the GI50 (IGROV-1)?
The GI50 was 26.7 µM (inactive).

And the GI50 (K562)?
The GI50 was 29.8 µM (inactive).

What about the GI50 (UACC-62) of the same compound?
Its GI50 is 22.3 µM (inactive).

And the GI50 (OVCAR-4)?
The GI50 was 31.7 µM (inactive).

And the GI50 (SK-MEL-5)?
Its GI50 is 23.1 µM (inactive).

What about the GI50 (HOP-92) of the same compound?
Its GI50 is 17.1 µM (inactive).

What about the GI50 (NCI-H23) of the same compound?
The GI50 was 21.3 µM (inactive).

And the GI50 (SNB-75)?
The GI50 was 17.2 µM (inactive).

What about the GI50 (RPMI-8226) of the same compound?
The GI50 was 20.9 µM (inactive).

And the GI50 (MCF7)?
Its GI50 is 14.1 µM (inactive).

And the GI50 (HOP-62)?
The GI50 was 20.9 µM (inactive).

And the GI50 (RXF 393)?
Its GI50 is 39.5 µM (inactive).

What about the GI50 (HL-60) of the same compound?
Its GI50 is 23.1 µM (inactive).

And the GI50 (SN12C)?
Its GI50 is 18.4 µM (inactive).

And the GI50 (NCI/ADR-RES)?
The GI50 was 19.2 µM (inactive).

And the GI50 (DU-145)?
The GI50 was 41.2 µM (inactive).

And the GI50 (T47D)?
Its GI50 is 29.9 µM (inactive).

And the GI50 (A498)?
The GI50 was 15.2 µM (inactive).

What about the GI50 (HCC 2998) of the same compound?
Its GI50 is 20.6 µM (inactive).

And the GI50 (Hs-578T)?
Its GI50 is 33.4 µM (inactive).

And the GI50 (HCT-116)?
Its GI50 is 21.3 µM (inactive).

And the GI50 (UACC-257)?
The GI50 was 21.5 µM (inactive).

What about the GI50 (SR) of the same compound?
The GI50 was 16.7 µM (inactive).

And the GI50 (COLO 205)?
The GI50 was 16.1 µM (inactive).

What about the GI50 (U-251) of the same compound?
Its GI50 is 33.1 µM (inactive).

What about the GI50 (OVCAR-5) of the same compound?
Its GI50 is 20.9 µM (inactive).

What about the GI50 (MDA-MB-231) of the same compound?
The GI50 was 12.4 µM (inactive).

And the GI50 (Malme-3M)?
The GI50 was 12.7 µM (inactive).

What about the GI50 (CCRF-CEM) of the same compound?
Its GI50 is 23.4 µM (inactive).

And the GI50 (SW-620)?
The GI50 was > 100 µM (inactive).

And the GI50 (HT-29)?
The GI50 was 17.9 µM (inactive).

And the GI50 (LOX IMVI)?
The GI50 was 14.2 µM (inactive).

What about the GI50 (MOLT-4) of the same compound?
Its GI50 is 21.9 µM (inactive).

And the GI50 (SF-268)?
The GI50 was 19 µM (inactive).

What about the GI50 (TK-10) of the same compound?
Its GI50 is 22.5 µM (inactive).

And the GI50 (KM12)?
Its GI50 is 19.8 µM (inactive).

What about the GI50 (786-0) of the same compound?
The GI50 was 20.8 µM (inactive).

What about the GI50 (PC-3) of the same compound?
The GI50 was 21.6 µM (inactive).

What about the GI50 (M14) of the same compound?
Its GI50 is 17.6 µM (inactive).

What about the GI50 (SF-295) of the same compound?
Its GI50 is 19.5 µM (inactive).

And the GI50 (A549)?
Its GI50 is 44.4 µM (inactive).

And the GI50 (MDA-MB-435)?
The GI50 was 20.1 µM (inactive).

And the GI50 (NCI-H522)?
Its GI50 is 24.7 µM (inactive).

What about the GI50 (SF-539) of the same compound?
Its GI50 is 18.8 µM (inactive).

What about the GI50 (CAKI-1) of the same compound?
Its GI50 is > 100 µM (inactive).

What about the GI50 (SNB-19) of the same compound?
The GI50 was > 100 µM (inactive).

What about the GI50 (MDA-N) of the same compound?
Its GI50 is 18.2 µM (inactive).

What about the GI50 (NCI-H226) of the same compound?
Its GI50 is 14.9 µM (inactive).

What does the source list for `CCN(CC)CCCOc1cc2c(cc1OC)C(=O)N1CCC[C@H]1C=N2`?
GI50 (HCT-15): 41.5 µM; GI50 (OVCAR-3): 24.2 µM (inactive); GI50 (EKVX): 68.4 µM (inactive); GI50 (SK-MEL-28): 18.1 µM (inactive); GI50 (ACHN): 29.6 µM (inactive); GI50 (OVCAR-8): 40.8 µM (inactive); GI50 (NCI-H460): 97.7 µM (inactive); GI50 (SK-MEL-2): 46 µM (inactive); GI50 (K562): 37.5 µM (inactive); GI50 (UACC-62): 21.4 µM (inactive); GI50 (OVCAR-4): 8.38 µM (inactive); GI50 (SK-MEL-5): 19.6 µM (inactive); GI50 (HOP-92): 24.6 µM (inactive); GI50 (RPMI-8226): 21.1 µM (inactive); GI50 (MCF7): 43 µM (inactive); GI50 (HOP-62): 23.3 µM (inactive); GI50 (RXF 393): 25.8 µM (inactive); GI50 (HL-60): 30.1 µM (inactive); GI50 (SN12C): 42.3 µM (inactive); GI50 (NCI/ADR-RES): > 100 µM (inactive); GI50 (DU-145): 35.2 µM (inactive); GI50 (A498): 29.6 µM (inactive); GI50 (Hs-578T): 71.1 µM (inactive); GI50 (HCT-116): 32.4 µM (inactive); GI50 (UACC-257): 53.7 µM (inactive); GI50 (SR): 29.2 µM (inactive); GI50 (COLO 205): 19.8 µM (inactive); GI50 (U-251): 26.4 µM (inactive); GI50 (OVCAR-5): 49.8 µM (inactive); GI50 (BT-549): 26.9 µM (inactive); GI50 (MDA-MB-231): 24.2 µM (inactive); GI50 (SK-OV-3): 39.7 µM (inactive); GI50 (Malme-3M): 42.5 µM (inactive); GI50 (CCRF-CEM): 33.2 µM (inactive); GI50 (SW-620): 17.2 µM (inactive); GI50 (HT-29): 17.8 µM (inactive); GI50 (LOX IMVI): 16.4 µM (inactive); GI50 (UO-31): 39.9 µM (inactive); GI50 (MOLT-4): 19.5 µM (inactive); GI50 (SF-268): 41.4 µM (inactive); GI50 (TK-10): 61.8 µM (inactive); GI50 (KM12): 20 µM (inactive); GI50 (786-0): 30.5 µM (inactive); GI50 (PC-3): 42.5 µM (inactive); GI50 (M14): 30.2 µM (inactive); GI50 (SF-295): 28.8 µM (inactive); GI50 (A549): > 100 µM (inactive); GI50 (MDA-MB-435): 22.5 µM (inactive); GI50 (NCI-H522): 11.4 µM (inactive); GI50 (SF-539): 42.7 µM (inactive); GI50 (CAKI-1): 18.2 µM (inactive); GI50 (SNB-19): 49.1 µM (inactive); GI50 (NCI-H226): 24.4 µM (inactive)
